From US20260265244A1, “HETEROCYCLIC COMPOUNDS AS STING ANTAGONISTS” (Boehringer Ingelheim International GmbH, priority 2022, published 2026)

Legend:
[1] = target: T1, human STING WT (R232) (Homo sapiens, UniProt Q86WV6, H232R); experiment: Human STING HTRF binding assay (competitive, Cisbio 64BDSTGPEG)
T1 construct: purchased Cisbio 64BDSTGPEG
Outline: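 Competitive HTRF: 6His-tagged human STING WT R232 binding domain (residues 138-379) with anti-6His Cryptate antibody and d2-labeled STING ligand, 180 min at room temperature, 1% DMSO, 8 concentrations from 10 μM or 1 μM top in ~1:5 steps. HTRF ratios were calibrated to a cGAMP standard curve and IC50 obtained by 4-parameter logistic fit.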

[2] = system: STING inhibition in human whole blood (IFNα2α production); experiment: Human whole blood assay (HWBA): cGAMP-stimulated IFNα2α production; format: cell-based; conditions: Homo sapiens
Outline: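 Na-citrate human whole blood from ≥3 healthy donors, preincubated 60 min at room temperature with compound (8 concentrations, top 10 μM, ~1:5 steps, 0.1% DMSO), then stimulated with cGAMP and incubated 22 h at 37 °C. Plasma IFNα2α measured by MSD immunoassay; % control versus stimulated/unstimulated wells, IC50 by 4-parameter logistic fit.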

T1 sequence (Q86WV6 138-379 H232R): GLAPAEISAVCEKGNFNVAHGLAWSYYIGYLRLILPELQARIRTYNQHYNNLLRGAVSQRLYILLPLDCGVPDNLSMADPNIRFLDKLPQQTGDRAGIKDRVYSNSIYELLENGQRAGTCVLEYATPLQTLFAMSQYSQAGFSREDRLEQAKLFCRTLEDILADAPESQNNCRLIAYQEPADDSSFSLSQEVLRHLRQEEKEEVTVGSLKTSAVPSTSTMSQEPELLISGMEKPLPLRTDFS

IC50 [1] [nM] | IC50 [2] [nM] | SMILES
37.7 | 370 | Cc1nc2nn(CC(O)CN3CCN(C)CC3)cc2cc1-n1nc(-c2cccc3nn(C[C@H](O)c4ccccc4)cc23)c(C(C)C)c1C (stereo partly drawn) [Example 70, 1-[5-(3-{2-[(2R)-2-hydroxy-2-phenylethyl]-2H-indazol-4-yl}-5-methyl-4-(propan-2-yl)-1H-pyrazol-1-yl)-6-methyl-2H-pyrazolo[3,4-b]pyridin-2-yl]-3-(4-methylpiperazin-1-yl)propan-2-ol]
17.6 | 400 | CCc1nc2nn(C)cc2cc1-c1nc(-c2cccc3nn(C[C@H](F)c4ccc(Cl)cc4)cc23)c(C2CC2)n1C [Example 72, 2-[(2R)-2-(4-chlorophenyl)-2-fluoroethyl]-4-(5-cyclopropyl-2-{6-ethyl-2-methyl-2H-pyrazolo[3,4-b]pyridin-5-yl}-1-methyl-1H-imidazol-4-yl)-2H-indazole]
11.4 | 440 | Cc1c(C(C)C)c(-c2cccc3nn(C[C@H](O)c4ccccc4)cc23)nn1-c1cc2cn(C)nc2nc1C1CCOCC1 [Example 73, (1R)-2-(4-{5-methyl-1-[2-methyl-6-(oxan-4-yl)-2H-pyrazolo[3,4-b]pyridin-5-yl]-4-(propan-2-yl)-1H-pyrazol-3-yl}-2H-indazol-2-yl)-1-phenylethan-1-ol]
34 | 2900 | CC(C)c1nc2nn(C)cc2cc1-c1nc(-c2cccc3nn(CS(=O)(=O)c4ccccc4)cc23)c(C2CC2)n1C [Example 96, 2-[(Benzenesulfonyl)methyl]-4-{5-cyclopropyl-1-methyl-2-[2-methyl-6-(propan-2-yl)-2H-pyrazolo[3,4-b]pyridin-5-yl]-1H-imidazol-4-yl}-2H-indazole]
3.4 | 52 | CC(C)c1nc2nn(C)cc2cc1-c1nc(-c2cccc3nn(C[C@H](O)c4ccccc4)cc23)c(C2CC2)n1C [Example 97, (1R)-2-(4-{5-Cyclopropyl-1-methyl-2-[2-methyl-6-(propan-2-yl)-2H-pyrazolo[3,4-b]pyridin-5-yl]-1H-imidazol-4-yl}-2H-indazol-2-yl)-1-phenylethan-1-ol]
3.1 | 31 | Cc1nc2nn(CC#N)cc2cc1-n1nc(-c2cccc3nn(C[C@H](O)c4ccccc4)cc23)c(C(C)C)c1C [Example 98, 2-[5-(3-{2-[(2R)-2-hydroxy-2-phenylethyl]-2H-indazol-4-yl}-5-methyl-4-(propan-2-yl)-1H-pyrazol-1-yl)-6-methyl-2H-pyrazolo[3,4-b]pyridin-2-yl]acetonitrile]
6.9 | 37 | CCn1cc2cc(-n3nc(-c4cccc5nn(C[C@H](O)c6ccccc6)cc45)c(C(C)C)c3C)c(C)nc2n1 [Example 100, (1R)-2-[4-(1-{2-ethyl-6-methyl-2H-pyrazolo[3,4-b]pyridin-5-yl}-5-methyl-4-(propan-2-yl)-1H-pyrazol-3-yl)-2H-indazol-2-yl]-1-phenylethan-1-ol]
10.6 | 39 | Cc1c(C(C)C)c(-c2cccc3nn(C[C@H](O)c4ccc(OCCN(C)C)cc4)cc23)nn1-c1cc2cn(C)nc2nc1C1CC1 [Example 101]
3.6 | 40 | Cc1nc2nn(C)cc2cc1-n1nc(-c2cccc3nn(C[C@H](O)c4ccccc4)cc23)c(C(C)C)c1C [Example 102, (1R)-2-[4-(1-{2,6-Dimethyl-2H-pyrazolo[3,4-b]pyridin-5-yl}-5-methyl-4-(propan-2-yl)-1H-pyrazol-3-yl)-2H-indazol-2-yl]-1-phenylethan-1-ol]
9.3 | 44 | Cc1nc2nn(CC(F)F)cc2cc1-n1nc(-c2cccc3nn(C[C@H](O)c4ccccc4)cc23)c(C(C)C)c1C [Example 103, (1R)-2-(4-{1-[2-(2,2-difluoroethyl)-6-methyl-2H-pyrazolo[3,4-b]pyridin-5-yl]-5-methyl-4-(propan-2-yl)-1H-pyrazol-3-yl}-2H-indazol-2-yl)-1-phenylethan-1-ol]
2 | 49 | Cn1c(-c2cc3cn(CCC#N)nc3nc2C2CC2)nc(-c2cccc3nn(C[C@H](O)c4ccccc4)cc23)c1C1CC1 [Example 104, 3-[6-cyclopropyl-5-(5-cyclopropyl-4-{2-[(2R)-2-hydroxy-2-phenylethyl]-2H-indazol-4-yl}-1-methyl-1H-imidazol-2-yl)-2H-pyrazolo[3,4-b]pyridin-2-yl]propanenitrile]
78.1 | 1600 | Cc1nc2cc(C)c(-n3nc(-c4cccc5nn(C[C@H](O)c6ccccc6)cc45)c(C(C)C)c3C)cc2[nH]1 [Example 105, (1R)-2-{4-[1-(2,5-dimethyl-1H-1,3-benzodiazol-6-yl)-5-methyl-4-(propan-2-yl)-1H-pyrazol-3-yl]-2H-indazol-2-yl}-1-phenylethan-1-ol]
3.2 | 28 | Cc1c(C(C)C)c(-c2cccc3nn(C[C@H](O)c4ccccc4)cc23)nn1-c1cc2cn(C)nc2nc1CO [Example 106, (1R)-2-(4-{1-[6-(hydroxymethyl)-2-methyl-2H-pyrazolo[3,4-b]pyridin-5-yl]-5-methyl-4-(propan-2-yl)-1H-pyrazol-3-yl}-2H-indazol-2-yl)-1-phenylethan-1-ol]
3.8 | 31 | CCc1nc2nn(C)cc2cc1-c1nc(-c2cccc3nn(C[C@H](F)c4ccccc4)cc23)c(C2CC2)n1C [Example 107, 4-(5-cyclopropyl-2-{6-ethyl-2-methyl-2H-pyrazolo[3,4-b]pyridin-5-yl}-1-methyl-1H-imidazol-4-yl)-2-[(2R)-2-fluoro-2-phenylethyl]-2H-indazole]
5.8 | 38 | Cc1nc2nn(C)cc2cc1-n1nc(-c2cccc3nn(C[C@H](OCC(N)=O)c4ccccc4)cc23)c(C(C)C)c1C [Example 108, 2-[(1R) -2-[4-(1-{2,6-dimethyl-2H-pyrazolo[3,4-b]pyridin-5-yl}-5-methyl-4-(propan-2-yl)-1H-pyrazol-3-yl)-2H-indazol-2-yl]-1-phenylethoxy]acetamide]
18.8 | 78 | CC(C)c1c(-c2cccc3nn(C[C@H](O)c4ccccc4)cc23)nc(-c2cc3cn(C)nc3cc2OC(F)(F)F)n1C [Example 109, (1R)-2-(4-{1-methyl-2-[2-methyl-6-(trifluoromethoxy)-2H-indazol-5-yl]-5-(propan-2-yl)-1H-imidazol-4-yl}-2H-indazol-2-yl)-1-phenylethan-1-ol]
8.3 | 85 | Cn1cc2cc(-c3nc(-c4cccc5nn(C[C@H](O)c6ccccc6)cc45)c(C4CC4)n3C)c(C3CC3(F)F)nc2n1 (stereo partly drawn) [Example 110, (1R)-2-(4-{5-cyclopropyl-2-[6-(2,2-difluorocyclopropyl)-2-methyl-2H-pyrazolo[3,4-b]pyridin-5-yl]-1-methyl-1H-imidazol-4-yl}-2H-indazol-2-yl)-1-phenylethan-1-ol]
25.2 | 750 | Cc1c(C(C)C)c(-c2cccc3nn(C[C@H](O)c4ccccc4)cc23)nn1-c1cc2cn(C)nc2nc1C1CCCN1 (stereo partly drawn) [Example 111, (1R)-2-(4-{5-Methyl-1-[2-methyl-6-(pyrrolidin-2-yl)-2H-pyrazolo[3,4-b]pyridin-5-yl]-4-(propan-2-yl)-1H-pyrazol-3-yl}-2H-indazol-2-yl)-1-phenylethan-1-ol]
31.7 | 170 | Cc1c(C(C)C)c(-c2cccc3nn(C[C@H](O)c4ccccc4)cc23)nn1-c1cc2cn(C)nc2nc1CN(C)C [Example 112]
62.8 | 1200 | Cc1c(C(C)C)c(-c2cccc3nn(C[C@H](O)c4ccccc4)cc23)nn1-c1cc2cn(C)nc2nc1C(C)(C)C [Example 113, (1R)-2-[4-(1-{6-tert-butyl-2-methyl-2H-pyrazolo[3,4-b]pyridin-5-yl}-5-methyl-4-(propan-2-yl)-1 H-pyrazol-3-yl)-2H-indazol-2-yl]-1-phenylethan-1-ol]
